This is an account of results in patent US8686150B2 (Sanofi, priority 2011, dated 2014).

The target in the experiment is T1, human full-length recombinant PKC βII (Homo sapiens, UniProt P05771).
T1 construct: Active human full-length recombinant PKC βII; purchased Invitrogen GmbH, Darmstadt, Germany
Kind of experiment: Determination of PKC βII inhibition (Caliper mobility-shift kinase assay, Fluorescein-RFARKGSLRQKNV peptide substrate). Particulars: example compounds at a final concentration of 1.14 μM (±0.15 μM). Type of experiment: biochemical. The method, boiled down: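 Full-length PKC βII (30 ng/ml in pre-dilution) with PS/DAG/Ca2+ activators, pH 7.4; fluorescein peptide and ATP at 3 μM and 120 μM before mixing. Reaction ran 60 min at 32 °C, was EDTA-stopped, and was read by mobility shift. % inhibition came from product/(substrate+product) peak heights, tested at 1.14 μM final.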

T1 sequence (P05771 1-673 isoform P05771-2): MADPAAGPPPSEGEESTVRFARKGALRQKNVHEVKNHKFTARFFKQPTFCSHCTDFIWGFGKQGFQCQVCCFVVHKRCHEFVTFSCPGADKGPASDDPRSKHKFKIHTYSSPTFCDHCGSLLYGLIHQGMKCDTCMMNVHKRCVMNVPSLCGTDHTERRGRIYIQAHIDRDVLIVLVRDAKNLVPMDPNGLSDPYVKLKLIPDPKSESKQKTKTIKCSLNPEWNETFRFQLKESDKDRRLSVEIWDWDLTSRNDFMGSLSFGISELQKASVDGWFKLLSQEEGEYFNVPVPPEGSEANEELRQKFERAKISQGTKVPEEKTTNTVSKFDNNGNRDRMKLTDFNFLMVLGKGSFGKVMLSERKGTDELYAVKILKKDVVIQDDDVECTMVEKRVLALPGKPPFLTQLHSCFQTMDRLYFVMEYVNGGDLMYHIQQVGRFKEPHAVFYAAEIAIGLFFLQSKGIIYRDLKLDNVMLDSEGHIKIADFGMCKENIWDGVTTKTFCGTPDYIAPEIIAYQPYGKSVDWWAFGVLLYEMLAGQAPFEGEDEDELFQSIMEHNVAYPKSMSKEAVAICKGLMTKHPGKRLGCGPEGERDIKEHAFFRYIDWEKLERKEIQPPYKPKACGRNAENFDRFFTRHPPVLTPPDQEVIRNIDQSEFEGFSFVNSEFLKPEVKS

Consider `Cc1n[nH]c2nc(-c3ccc(O)cc3)cc(C(=O)N3CCCC(N)C3)c12` (stereo not shown) [Example 76, (3-Amino-piperidin-1-yl)-[6-(4-hydroxy-phenyl)-3-methyl-1H-pyrazolo[3,4-b]pyridin-4-yl]-methanone], for which the inhibition (commonly the relative decrease from the control value, in per cent) at 1.14 µM is 88%.
Take `Cc1n[nH]c2nc(-c3ccc(O)cc3)cc(C(=O)N[C@H]3CC[C@H](N)CC3)c12` [Example 77, 6-(4-Hydroxy-phenyl)-3-methyl-1H-pyrazolo[3,4-b]pyridine-4-carboxylic acid (trans-4-amino-cyclohexyl)-amide]: the inhibition at 1.14 µM amounted to 60%.
For the compound `COc1ccccc1C1CNCCN1C(=O)c1cc(-c2ccc(O)cc2)nc2[nH]nc(C)c12` (stereo not shown) [Example 79, [6-(4-Hydroxy-phenyl)-3-methyl-1H-pyrazolo[3,4-b]pyridin-4-yl]-[2-(2-methoxy-phenyl)-piperazin-1-yl]-methanone], the inhibition at 1.14 µM was 82%.
`Cc1n[nH]c2nc(-c3ccc(O)cc3)cc(C(=O)N3CCNCC34CC4)c12` [Example 80, (4,7-Diaza-spiro[2.5]oct-4-yl)-[6-(4-hydroxy-phenyl)-3-methyl-1H-pyrazolo[3,4-b]pyridin-4-yl]-methanone]: the inhibition at 1.14 µM is 91%.
Turning to `Cc1n[nH]c2nc(-c3ccc(O)cc3)cc(C(=O)N3C[C@H](C)NC[C@H]3C)c12` [Example 81, ((2R,5S)-2,5-Dimethyl-piperazin-1-yl)-[6-(4-hydroxy-phenyl)-3-methyl-1H-pyrazolo[3,4-b]pyridin-4-yl]-methanone], the % Inhibition (as a rule, the share of the control response that was lost under treatment) is reported as 76%.
As to `Cc1n[nH]c2nc(-c3ccc(O)cc3)cc(C(=O)N3CCNC[C@@H]3c3cccc(F)c3)c12` [Example 82, [(S)-2-(3-Fluoro-phenyl)-piperazin-1-yl]-[6-(4-hydroxy-phenyl)-3-methyl-1H-pyrazolo[3,4-b]pyridin-4-yl]-methanone], the inhibition at 1.14 µM stood at 92%.
In the case of `Cc1n[nH]c2nc(-c3ccc(O)cc3)cc(C(=O)N3C[C@@H](C)NC[C@H]3C)c12` [Example 83, ((2R,5R)-2,5-Dimethyl-piperazin-1-yl)-[6-(4-hydroxy-phenyl)-3-methyl-1H-pyrazolo[3,4-b]pyridin-4-yl]-methanone], the inhibition at 1.14 µM came out at 104%.
On to `Cc1n[nH]c2nc(-c3ccc(O)cc3)cc(C(=O)N3CCNCC3c3ccc(F)cc3)c12` (stereo not shown) [Example 84, [2-(4-Fluoro-phenyl)-piperazin-1-yl]-[6-(4-hydroxy-phenyl)-3-methyl-1H-pyrazolo[3,4-b]pyridin-4-yl]-methanone], for which the inhibition at 1.14 µM stood at 101%.
In the case of `Cc1n[nH]c2nc(-c3ccc(O)cc3)cc(C(=O)N3CCNCC3c3cccc(F)c3F)c12` (stereo not shown) [Example 85, [2-(2,3-Difluoro-phenyl)-piperazin-1-yl]-[6-(4-hydroxy-phenyl)-3-methyl-1H-pyrazolo[3,4-b]pyridin-4-yl]-methanone], the inhibition at 1.14 µM amounted to 98%.
Turning to `Cc1n[nH]c2nc(-c3ccc(O)cc3)cc(C(=O)N3CCNC(C4CC4)C3)c12` (stereo not shown) [Example 86, (3-Cyclopropyl-piperazin-1-yl)-[6-(4-hydroxy-phenyl)-3-methyl-1H-pyrazolo[3,4-b]pyridin-4-yl]-methanone], the inhibition at 1.14 µM is 96%.
Turning to `Cc1n[nH]c2nc(-c3ccc(O)cc3)cc(C(=O)N3CCNCC3c3cc(F)cc(F)c3)c12` (stereo not shown) [Example 87, [2-(3,5-Difluoro-phenyl)-piperazin-1-yl]-[6-(4-hydroxy-phenyl)-3-methyl-1H-pyrazolo[3,4-b]pyridin-4-yl]-methanone], the inhibition at 1.14 µM was found to be 93%.
`Cc1n[nH]c2nc(-c3ccc(O)cc3)cc(C(=O)N3C[C@H](C)NC[C@@H]3C)c12` [Example 88, ((2S,5S)-2,5-Dimethyl-piperazin-1-yl)-[6-(4-hydroxy-phenyl)-3-methyl-1H-pyrazolo[3,4-b]pyridin-4-yl]-methanone]: the inhibition at 1.14 µM is 101%.
With `Cc1n[nH]c2nc(-c3ccc(O)cc3)cc(C(=O)N3CCNCC3c3ccc(Br)cc3)c12` (stereo not shown) [Example 89, [2-(4-Bromo-phenyl)-piperazin-1-yl]-[6-(4-hydroxy-phenyl)-3-methyl-1H-pyrazolo[3,4-b]pyridin-4-yl]-methanone], the inhibition at 1.14 µM is 92%.
`Cc1n[nH]c2nc(-c3ccc(O)cc3)cc(C(=O)N3CC(CN)C3)c12` [Example 90, (3-Aminomethyl-azetidin-1-yl)-[6-(4-hydroxy-phenyl)-3-methyl-1H-pyrazolo[3,4-b]pyridin-4-yl]-methanone]: the inhibition at 1.14 µM came to 96%.
The same measure, in the same setting: the result for `Cc1n[nH]c2nc(-c3ccc(O)cc3)cc(C(=O)N3CCNCC3c3cccc(F)c3)c12` (stereo not shown) [Example 91, [2-(3-Fluoro-phenyl)-piperazin-1-yl]-[6-(4-hydroxy-phenyl)-3-methyl-1H-pyrazolo[3,4-b]pyridin-4-yl]-methanone] reads 93%; that for `Cc1n[nH]c2nc(-c3ccc(O)cc3)cc(C(=O)N3CCNCC3c3ccc(F)c(F)c3)c12` (stereo not shown) [Example 92, [2-(3,4-Difluoro-phenyl)-piperazin-1-yl]-[6-(4-hydroxy-phenyl)-3-methyl-1H-pyrazolo[3,4-b]pyridin-4-yl]-methanone], 95%.
As for `Cc1n[nH]c2nc(-c3ccc(O)cc3)cc(C(=O)N3CCNCC3c3ccccc3C(F)(F)F)c12` (stereo not shown) [Example 93, [6-(4-Hydroxy-phenyl)-3-methyl-1H-pyrazolo[3,4-b]pyridin-4-yl]-[2-(2-trifluoromethyl-phenyl)-piperazin-1-yl]-methanone], the inhibition at 1.14 µM was 79%.
In the case of `Cc1n[nH]c2nc(-c3ccc(O)cc3)cc(C(=O)N3CCNCC3c3ccc(C(C)C)cc3)c12` (stereo not shown) [Example 94, [6-(4-Hydroxy-phenyl)-3-methyl-1H-pyrazolo[3,4-b]pyridin-4-yl]-[2-(4-isopropyl-phenyl)-piperazin-1-yl]-methanone], the inhibition at 1.14 µM amounted to 90%.
In the case of `Cc1n[nH]c2nc(-c3ccc(O)cc3)cc(C(=O)N3CCNCC3c3ccccc3F)c12` (stereo not shown) [Example 95, [2-(2-Fluoro-phenyl)-piperazin-1-yl]-[6-(4-hydroxy-phenyl)-3-methyl-1H-pyrazolo[3,4-b]pyridin-4-yl]-methanone], the inhibition at 1.14 µM came out at 99%.
`Cc1n[nH]c2nc(-c3ccc(O)cc3)cc(C(=O)N3CCNCC3c3ccc(F)cc3F)c12` (stereo not shown) [Example 96, [2-(2,4-Difluoro-phenyl)-piperazin-1-yl]-[6-(4-hydroxy-phenyl)-3-methyl-1H-pyrazolo[3,4-b]pyridin-4-yl]-methanone]: the inhibition at 1.14 µM came out at 98%.
Still for that read-out and setting: with `Cc1n[nH]c2nc(-c3ccc(O)cc3)cc(C(=O)N3CCNCC3c3ccc(C(F)(F)F)cc3)c12` (stereo not shown) [Example 97, [6-(4-Hydroxy-phenyl)-3-methyl-1H-pyrazolo[3,4-b]pyridin-4-yl]-[2-(4-trifluoromethyl-phenyl)-piperazin-1-yl]-methanone] the figure was 96%; with `Cc1n[nH]c2nc(-c3ccc(O)cc3)cc(C(=O)NCC3CNC3)c12` [Example 98, 6-(4-Hydroxy-phenyl)-3-methyl-1H-pyrazolo[3,4-b]pyridine-4-carboxylic acid (azetidin-3-ylmethyl)-amide], 89%; with `Cc1n[nH]c2nc(-c3ccc(O)cc3)cc(C(=O)N3CCNCC3c3cccc(C(F)(F)F)c3)c12` (stereo not shown) [Example 99, [6-(4-Hydroxy-phenyl)-3-methyl-1H-pyrazolo[3,4-b]pyridin-4-yl]-[2-(3-trifluoromethyl-phenyl)-piperazin-1-yl]-methanone], 97%.
Regarding `Cc1n[nH]c2nc(-c3ccc(O)cc3)cc(C(=O)N3CCNCC3c3c(F)cccc3F)c12` (stereo not shown) [Example 100, [2-(2,6-Difluoro-phenyl)-piperazin-1-yl]-[6-(4-hydroxy-phenyl)-3-methyl-1H-pyrazolo[3,4-b]pyridin-4-yl]-methanone], the inhibition at 1.14 µM stood at 96%.
Same read-out and setting: the result for `Cc1n[nH]c2nc(-c3ccc(O)cc3)cc(C(=O)N3CCNCC3c3cccc(Br)c3)c12` (stereo not shown) [Example 101, [2-(3-Bromo-phenyl)-piperazin-1-yl]-[6-(4-hydroxy-phenyl)-3-methyl-1H-pyrazolo[3,4-b]pyridin-4-yl]-methanone] reads 99%; that for `Cc1n[nH]c2nc(-c3ccc(O)cc3)cc(C(=O)N3CCNCC3c3ccccc3Cl)c12` (stereo not shown) [Example 102, [2-(2-Chloro-phenyl)-piperazin-1-yl]-[6-(4-hydroxy-phenyl)-3-methyl-1H-pyrazolo[3,4-b]pyridin-4-yl]-methanone], 93%; that for `Cc1n[nH]c2nc(-c3ccc(O)cc3)cc(C(=O)N[C@H]3CC[C@@H](N)CC3)c12` [Example 103, 6-(4-Hydroxy-phenyl)-3-methyl-1H-pyrazolo[3,4-b]pyridine-4-carboxylic acid (cis-4-amino-cyclohexyl)-amide], 72%.
As for `Cc1n[nH]c2nc(-c3ccc(O)cc3)cc(C(=O)NC(CN)c3ccccc3)c12` (stereo not shown) [Example 104, 6-(4-Hydroxy-phenyl)-3-methyl-1H-pyrazolo[3,4-b]pyridine-4-carboxylic acid (2-amino-1-phenyl-ethyl)-amide], the inhibition at 1.14 µM worked out at 94%.
Still for that read-out and setting: the result for `Cc1n[nH]c2nc(-c3ccc(O)cc3)cc(C(=O)NC[C@H]3CC[C@@H](N)CC3)c12` [Example 105, 6-(4-Hydroxy-phenyl)-3-methyl-1H-pyrazolo[3,4-b]pyridine-4-carboxylic acid (cis-4-amino-cyclohexylmethyl)-amide] reads 53%; that for `Cc1n[nH]c2nc(-c3ccc(O)cc3)cc(C(=O)NC3CCNC3)c12` (stereo not shown) [Example 106, 6-(4-Hydroxy-phenyl)-3-methyl-1H-pyrazolo[3,4-b]pyridine-4-carboxylic acid pyrrolidin-3-ylamide], 77%.
Still for that read-out and setting: the result for `Cc1n[nH]c2nc(-c3ccc(O)cc3)cc(C(=O)NC(CN)c3ccc(F)cc3)c12` (stereo not shown) [Example 107, 6-(4-Hydroxy-phenyl)-3-methyl-1H-pyrazolo[3,4-b]pyridine-4-carboxylic acid [2-amino-1-(4-fluoro-phenyl)-ethyl]-amide] reads 83%.
